≈ marks a conversion by molar mass, not a printed value. Where “and” joins values, the source holds several entries; their conditions need not be identical. Identical values can stand only once.
Assays:
[1] = tested on: P. aeruginosa ATCC10145; assay: Well diffusion inhibition zone, P. aeruginosa; settings: Pseudomonas aeruginosa, ATCC10145, read-out: Inhibition zone P. aeruginosa ATCC10145
[2] = tested on: E. faecalis ATCC29212; assay: Well diffusion inhibition zone, E. faecalis; settings: Enterococcus faecalis, ATCC29212, read-out: Inhibition zone E. faecalis ATCC29212
[3] = tested on: E.coli ATCC25915; assay: Well diffusion inhibition zone, E. coli; settings: Escherichia coli, ATCC25915, read-out: Inhibition zone E.coli ATCC25915
[4] = tested on: S. aureus ATCC25923; assay: Well diffusion inhibition zone, S. aureus; settings: Staphylococcus aureus, ATCC25923, read-out: Inhibition zone S. aureus ATCC25923
[5] = tested on: cervical carcinoma (HeLa); assay: MTT cytotoxicity assay, HeLa; settings: for SI HeLa: IC50 WI-38 / IC50 HeLa; for IC50: read-out: IC50 HeLa, MTT, mean ± SD of three measurements
[6] = tested on: liver carcinoma (HepG-2); assay: MTT cytotoxicity assay, HepG-2; settings: for SI HepG-2: IC50 WI-38 / IC50 HepG-2; for IC50: read-out: IC50 HepG-2, MTT, mean ± SD of three measurements
[7] = tested on: breast carcinoma (MCF-7); assay: MTT cytotoxicity assay, MCF-7; settings: for SI MCF-7: IC50 WI-38 / IC50 MCF-7; for IC50: read-out: IC50 MCF-7, MTT, mean ± SD of three measurements
[8] = in vitro; settings: human, WI-38 normal lung fibroblast cells
[9] = tested on: HeLa, HepG-2, and MCF-7; assay: MTT cytotoxicity, range over the cancer cell panel; settings: read-out: IC50 across HeLa, HepG-2 and MCF-7; range over all examined cancer cell lines
[10] = tested on: P. aeruginosa ATCC10145; assay: MIC, two-fold serial dilution, P. aeruginosa; assay type: cell-based; settings: Pseudomonas aeruginosa
[11] = tested on: E. faecalis ATCC29212; assay: MIC, two-fold serial dilution, E. faecalis; assay type: cell-based, Enterococcus faecalis; settings: for MIC: Enterococcus faecalis, ATCC29212
[12] = tested on: S. aureus ATCC25923; assay: MIC, two-fold serial dilution, S. aureus; assay type: cell-based, Staphylococcus aureus; settings: for MIC: Staphylococcus aureus, ATCC25923
[13] = tested on: E. coli ATCC25915; assay: MIC, two-fold serial dilution, E. coli; assay type: cell-based; settings: Escherichia coli

SMILES | IC50 at 48 h [8] [µM] | SI HeLa [5] | IC50 [5] [µM] | SI HepG-2 [6] | IC50 [6] [µM] | SI MCF-7 [7] | IC50 [7] [µM] | IC50 [9] | zone of inhibition at 100 µg/mL [1] [mm] | zone of inhibition at 100 µg/mL [3] [mm] | other results
O=C(O)c1cn(C2CC2)c2cc(N3CCNCC3)c(F)cc2c1=O [Ciprofloxacin, reference compound] | – | – | – | – | – | – | – | – | – | – | zone of inhibition at 50 µg/mL [1]: 12.3 ± 0.4 mm; zone of inhibition at 50 µg/mL [2]: 7.5 mm; zone of inhibition at 50 µg/mL [3]: 10 mm; zone of inhibition at 50 µg/mL [4]: 8 ± 0.15 mm
Cn1c(=O)c2c(-c3ccc(Cl)cc3)c(C(=O)NC(=S)NN)c(N)nc2n(C)c1=O [Compound 5, 7-Amino-5-(4-chlorophenyl)-N-(hydrazinecarbonothioyl)-1,3-dimethyl-2,4-dioxo-1,2,3,4-tetrahydropyrido[2,3-d]pyrimidine-6-carboxamide] | 35.2 ± 2.2 | 0.39 | 89.4 ± 4.6 | – | > 100 | 0.41 | 84.1 ± 4.2 | > 84 µM | – | – | –
Cn1c(=O)c2c(-c3ccc(Cl)cc3)c(-c3nn(CCC#N)c(=S)o3)c(N)nc2n(C)c1=O [Compound 9, 3-{5-[7-Amino-5-(4-chlorophenyl)-1,3-dimethyl-2,4-dioxo-1,2,3,4-tetrahydropyrido [2,3-d]pyrimidin-6-yl]-2-thioxo-1,3,4-oxadiazol-3(2H)-yl}propanenitrile] | > 100 | – | 62.7 ± 3.5 | – | 88.6 ± 4.4 | – | 67.8 ± 3.6 | > 50 µM and 62 to 88 µM | 7.6 | – | –
Cn1c(=O)c2c(-c3ccc(Cl)cc3)c(-c3nn(CCc4nn[nH]n4)c(=S)o3)c(N)nc2n(C)c1=O [Compound 10, 6-{4-[2-(2H-Tetrazol-5-yl)ethyl]-5-thioxo-4,5-dihydro-1,3,4-oxadiazol-2-yl}-7-amino-5-(4-chlorophenyl)-1,3-dimethylpyrido[2,3-d]pyrimidine-2,4(1H,3H)-dione] | 37.9 ± 2.4 | 0.77 | 48.7 ± 2.8 | 0.54 | 69.4 ± 3.7 | 0.71 | 53.1 ± 3.1 | > 50 µM | 6 | – | –
Cc1cc(C)n(-c2c[nH]nc2NC(=O)c2c(N)nc3c(c2-c2ccc(Cl)cc2)c(=O)n(C)c(=O)n3C)n1 [Compound 13, 7-Amino-5-(4-chlorophenyl)-N-(3,5-dimethyl-1′H-[1,4′-bipyrazol]-3′-yl)-1,3-dimethyl-2,4-dioxo-1,2,3,4-tetrahydropyrido[2,3-d]pyrimidine-6-carboxamide] | 10.7 ± 0.8 | 0.37 | 28.7 ± 1.9 | 0.32 | 32.6 ± 2.1 | 0.29 | 36.1 ± 2.2 | 28 to 36 µM | 16.8 | 14.5 ± 0.15 | MIC [10]: 100 µg/mL (≈ 192 µM); MIC E. faecalis ATCC29212 [11]: >100 µg/mL; MIC [11]: > 100 µg/mL; MIC S. aureus ATCC25923 [12]: >100 µg/mL; MIC [12]: > 100 µg/mL; MIC [13]: 50 µg/mL (≈ 96.2 µM)
CC1=NN(C(=S)NC(=O)c2c(N)nc3c(c2-c2ccc(Cl)cc2)c(=O)n(C)c(=O)n3C)C(=O)C1 [Compound 16, 7-Amino-5-(4-chlorophenyl)-1,3-dimethyl-N-(3-methyl-5-oxo-4,5-dihydro-1H-pyrazole-1-carbonothioyl)-2,4-dioxo-1,2,3,4-tetrahydropyrido[2,3-d]pyrimidine-6-carboxamide] | 57.6 ± 3.2 | 1.65 | 34.8 ± 2.1 | 0.88 | 65.1 ± 3.4 | 1.34 | 42.9 ± 2.5 | 35 to 65 µM | 17.6 | 18.5 ± 0.15 | MIC [11]: 100 µg/mL (≈ 200 µM); zone of inhibition at 100 µg/mL [2]: 4 ± 0.6 mm; MIC [12]: 100 µg/mL (≈ 200 µM); MIC [13]: 50 µg/mL (≈ 100 µM); zone of inhibition at 100 µg/mL [4]: 4.5 ± 0.1 mm
C#Cc1cccc(Nc2ncnc3cc(OCCOC)c(OCCOC)cc23)c1 [Erlotinib, erlotinib, reference compound] | 78.3 ± 3.9 | – | 8.04 ± 0.5 | – | 9.18 ± 0.6 | – | 7.26 ± 0.3 | – | – | – | –

Further lines, with some results ahead:

IC50 at 48 h [8] [µM] | SMILES | SI HeLa [5] | IC50 [5] [µM] | SI HepG-2 [6] | IC50 [6] [µM] | SI MCF-7 [7] | IC50 [7] [µM] | IC50 [9] | zone of inhibition at 100 µg/mL [1] [mm] | zone of inhibition at 100 µg/mL [3] [mm] | other results
52.8 ± 2.9 | Cn1c(=O)c2c(-c3ccc(Cl)cc3)c(C(=O)Nc3n[nH]cc3NN)c(N)nc2n(C)c1=O [Compound 3, 7-Amino-5-(4-chlorophenyl)-N-(4-hydrazinyl-1H-pyrazol-3-yl)-1,3-dimethyl-2,4-dioxo-1,2,3,4-tetrahydropyrido[2,3-d]pyrimidine-6-carboxamide] | 3.73 | 14.1 ± 1.2 | 2.46 | 21.4 ± 1.5 | 2.70 | 19.5 ± 1.3 | 14 to 26 µM | – | – | –
46.1 ± 2.7 | Cn1c(=O)c2c(-c3ccc(Cl)cc3)c(-c3nnc(S)n3N)c(N)nc2n(C)c1=O [Compound 4, 7-Amino-6-(4-amino-5-mercapto-4H-1,2,4-triazol-3-yl)-5-(4-chlorophenyl)-1,3-dimethylpyrido[2,3-d]pyrimidine-2,4(1H,3H)-dione] | 2.43 | 18.9 ± 1.4 | 1.99 | 23.1 ± 1.6 | 1.76 | 26.1 ± 1.7 | 14 to 26 µM | 6 | – | –
38.4 ± 2.6 | Cc1cc(C)n(C(=O)c2c(N)nc3c(c2-c2ccc(Cl)cc2)c(=O)n(C)c(=O)n3C)n1 [Compound 6, 7-Amino-5-(4-chlorophenyl)-6-(3,5-dimethyl-1H-pyrazole-1-carbonyl)-1,3-dimethylpyrido[2,3-d]pyrimidine-2,4(1H,3H)-dione] | 1.54 | 24.8 ± 1.6 | 1.29 | 29.7 ± 1.8 | 1.20 | 32 ± 1.9 | 24 to 32 µM | – | – | –
26.8 ± 1.8 | Cn1c(=O)c2c(-c3ccc(Cl)cc3)c(-c3nnc(S)o3)c(N)nc2n(C)c1=O [Compound 7, 7-Amino-5-(4-chlorophenyl)-6-(5-mercapto-1,3,4-oxadiazol-2-yl)-1,3-dimethylpyrido[2,3-d]pyrimidine-2,4(1H,3H)-dione] | 2.75 | 9.72 ± 0.9 | 1.52 | 17.5 ± 1.3 | 2.30 | 11.6 ± 0.9 | 9.72 to 17.5 µM | – | – | –
25.2 ± 1.8 | Cn1c(=O)c2c(-c3ccc(Cl)cc3)c(C3=NN=C(N)C3C#N)c(N)nc2n(C)c1=O (stereo not shown) [Compound 8, 3-Amino-5-[7-amino-5-(4-chlorophenyl)-1,3-dimethyl-2,4-dioxo-1,2,3,4-tetrahydropyrido[2,3-d]pyrimidin-6-yl]-4H-pyrazole-4-carbonitrile] | 0.35 | 71.4 ± 3.8 | 0.30 | 82.8 ± 4.1 | 0.31 | 79.3 ± 3.9 | > 50 µM and 62 to 88 µM | – | – | –
> 100 | Cn1c(=O)c2c(-c3ccc(Cl)cc3)c(C3=NN=C4N=CNC(=O)C43)c(N)nc2n(C)c1=O (stereo not shown) [Compound 11, 7-Amino-5-(4-chlorophenyl)-1,3-dimethyl-6-(4-oxo-3a,5-dihydro-4H-pyrazolo [3,4-d]pyrimidin-3-yl)pyrido[2,3-d]pyrimidine-2,4(1H,3H)-dione] | – | 56.4 ± 3.2 | – | 73.2 ± 3.8 | – | 60.6 ± 3.5 | > 50 µM | 8.6 | 2 ± 0.1 | –
22.5 ± 1.6 | Cn1c(=O)c2c(-c3ccc(Cl)cc3)c(-c3nnc4n3N=C(Cl)CS4)c(N)nc2n(C)c1=O [Compound 14, 7-Amino-6-(6-chloro-7H-[1,2,4]triazolo [3,4-b][1,3,4]thiadiazin-3-yl)-5-(4-chlorophenyl)-1,3-dimethylpyrido[2,3-d]pyrimidine-2,4(1H,3H)-dione] | 0.32 | 68.7 ± 3.6 | 0.23 | 93.7 ± 4.8 | 0.29 | 75.1 ± 3.8 | > 50 µM and 69 to 94 µM | 9.5 | 8.15 ± 0.3 | zone of inhibition at 100 µg/mL [4]: 3 ± 0.05 mm
41.2 ± 2.5 | Cn1c(=O)c2c(-c3ccc(Cl)cc3)c(-c3nnc4sc(S)nn34)c(N)nc2n(C)c1=O [Compound 15, 7-Amino-5-(4-chlorophenyl)-6-(6-mercapto-[1,2,4]triazolo[3,4-b][1,3,4]thiadiazol-3-yl)-1,3-dimethylpyrido[2,3-d]pyrimidine-2,4(1H,3H)-dione] | 1.03 | 39.8 ± 2.4 | 0.79 | 51.8 ± 2.9 | 0.86 | 47.5 ± 2.8 | 40 to 52 µM | 10.3 | 7.5 ± 0.15 | –
